pIC50: −log10 of the molar value. ≈ marks a conversion by molar mass, not a printed value.
Key:
[1] = physchem; conditions: acetate buffer, pH 4
Description: Aqueous solubility of the compound in pH 4 acetate buffer by RP-UPLC analysis

[2] = Ratio of test compound to atazanavir aqueous solubility in pH 4 citrate buffer by RP-UPLC analysis; format: physicochemical
[3] = Elimination half life in rat hepatocytes at 1 uM in presence of esterase inhibitor PMSF/CYP450 inhibitor ABT; format: ADME, cell-based, Hepatocyte; conditions: read-out: beta t1/2
[4] = Aqueous solubility of the compound in FaSSIF by RP-HPLC analysis; format: physicochemical
[5] = in vitro; conditions: human, Caco-2
Description: Apparent permeability across basolateral to apical side in human Caco2 cells at 2 uM

[6] = Prodrug conversion in rat hepatocytes assessed as pseudo first order rate constant for atazanavir formation at 1 uM in absence of esterase inhibitor PMSF/CYP450 inhibitor ABT; format: ADME, cell-based, Hepatocyte
[7] = Drug metabolism in cannulated Sprague-Dawley rat assessed as prodrug to atazanavir ratio at 6 mg/kg equiv of atazanavir administered orally by UPLC/MS/MS analysis; format: ADME, organism-based; conditions: in vivo, po
[8] = physchem; conditions: 30% CH3CN/phosphate buffer, pH 6.5
Description: Half life in pH 6.5 30%CH3CN/phosphate buffer at 50 mM by RP-UPLC analysis

[9] = Aqueous solubility of the compound in pH 5 buffer by RP-UPLC analysis; format: physicochemical
[10] = Cmax in cannulated Sprague-Dawley rat assessed as atazanavir level at 6 mg/kg equiv of atazanavir administered orally by UPLC/MS/MS analysis; format: ADME, organism-based; set-up: dose 6 mg/kg, route oral; conditions: in vivo, po
[11] = biological target: T1, UGT1A1 (Rattus norvegicus, UniProt Q64550); test: Ratio of test compound IC50 to atazanavir IC50 for recombinant rat UGT1A1; format: ADME; conditions: read-out: Ratio IC50
T1 sequence (Q64550 whole entry): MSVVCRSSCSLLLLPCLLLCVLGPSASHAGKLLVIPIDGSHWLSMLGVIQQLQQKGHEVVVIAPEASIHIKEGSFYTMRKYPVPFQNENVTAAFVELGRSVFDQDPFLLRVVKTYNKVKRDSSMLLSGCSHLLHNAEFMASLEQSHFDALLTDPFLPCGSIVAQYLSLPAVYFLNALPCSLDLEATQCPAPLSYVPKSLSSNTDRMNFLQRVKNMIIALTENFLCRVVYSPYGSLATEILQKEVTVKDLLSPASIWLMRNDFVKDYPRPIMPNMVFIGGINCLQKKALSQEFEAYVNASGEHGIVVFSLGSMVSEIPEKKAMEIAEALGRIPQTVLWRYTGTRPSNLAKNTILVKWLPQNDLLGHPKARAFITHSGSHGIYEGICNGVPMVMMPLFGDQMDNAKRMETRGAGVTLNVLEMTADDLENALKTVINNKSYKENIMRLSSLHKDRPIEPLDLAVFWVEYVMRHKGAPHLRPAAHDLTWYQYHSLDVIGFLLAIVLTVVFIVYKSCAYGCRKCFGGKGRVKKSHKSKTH

[12] = Tmax in cannulated Sprague-Dawley rat assessed as atazanavir level at 30 mg/kg equiv of atazanavir administered orally by UPLC/MS/MS analysis; format: ADME, organism-based; conditions: in vivo, po
[13] = Aqueous solubility of the compound in FeSSIF by RP-HPLC analysis; format: physicochemical
[14] = Cmin in cannulated Sprague-Dawley rat assessed as atazanavir level at 3 mg/kg equiv of atazanavir administered orally measured after 24 hrs by UPLC/MS/MS analysis; format: ADME, organism-based; conditions: in vivo, po, BLD = below limit of detection
[15] = rat, in vivo, po, 3 mg/kg
Description: AUClast in cannulated Sprague-Dawley rat assessed as atazanavir level at 3 mg/kg equiv of atazanavir administered orally by UPLC/MS/MS analysis

[16] = Total AUC in cannulated Sprague-Dawley rat assessed as atazanavir level at 6 mg/kg equiv of atazanavir administered orally by UPLC/MS/MS analysis relative to atazanavir alone; format: ADME, organism-based; conditions: in vivo, po
[17] = Elimination half life in rat hepatocytes at 1 uM in presence of CYP450 inhibitor ABT; format: ADME, cell-based, Hepatocyte; conditions: with ABT (CYP450 inhibitor), read-out: beta t1/2
[18] = in vitro; conditions: human, Caco-2; remark: listed apart in the source
Description: Efflux ratio of apparent permeability across basolateral to apical side over apical to basolateral side in human Caco2 cells

[19] = Tmax in cannulated Sprague-Dawley rat assessed as atazanavir level at 6 mg/kg equiv of atazanavir administered orally by UPLC/MS/MS analysis; format: ADME, organism-based; conditions: in vivo, po
[20] = AUClast in cannulated Sprague-Dawley rat assessed as atazanavir level at 6 mg/kg equiv of atazanavir administered orally by UPLC/MS/MS analysis; format: ADME, organism-based; set-up: dose 6 mg/kg, time 0 - last, route oral; conditions: in vivo, po
[21] = biological target: T2, UDP-glucuronosyltransferase 1A1 (Homo sapiens, UniProt P22309); test: Inhibition of UGT1A1 in human liver microsomes using beta-estradiol as substrate preincubated for 5 mins followed by substrate addition and measured after 40 mins by LC-MS/MS analysis; format: ADME
T2 sequence (P22309 whole entry): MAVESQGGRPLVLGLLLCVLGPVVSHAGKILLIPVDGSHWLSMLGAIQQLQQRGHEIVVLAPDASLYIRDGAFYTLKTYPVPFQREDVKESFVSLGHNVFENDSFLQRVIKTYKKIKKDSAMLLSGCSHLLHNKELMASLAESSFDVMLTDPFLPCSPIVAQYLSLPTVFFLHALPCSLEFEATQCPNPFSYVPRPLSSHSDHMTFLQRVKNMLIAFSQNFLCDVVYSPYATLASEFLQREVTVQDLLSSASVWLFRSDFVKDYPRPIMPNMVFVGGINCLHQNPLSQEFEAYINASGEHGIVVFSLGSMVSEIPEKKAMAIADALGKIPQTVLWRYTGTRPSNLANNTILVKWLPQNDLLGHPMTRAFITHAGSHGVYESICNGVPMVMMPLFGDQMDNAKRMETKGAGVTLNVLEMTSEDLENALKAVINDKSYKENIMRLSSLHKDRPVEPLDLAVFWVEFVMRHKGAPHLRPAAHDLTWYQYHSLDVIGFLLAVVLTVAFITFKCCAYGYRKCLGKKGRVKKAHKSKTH

[22] = Elimination half life in rat hepatocytes at 1 uM in presence of esterase inhibitor PMSF; format: ADME, cell-based, Hepatocyte; conditions: with PMSF (esterase inhibitor), read-out: beta t1/2
[23] = rat, in vivo, po, 3 mg/kg; remark: listed apart in the source
[24] = Ratio of test compound to atazanavir aqueous solubility in pH 4 acetate buffer by RP-UPLC analysis; format: physicochemical
[25] = Stability in simulated gastric fluid assessed as porcine pepsin-mediated compound hydrolysis at 1 mL measured up to 1 hr at pH 1.2 by HPLC analysis; format: ADME, Sus scrofa; conditions: pig, isolated protein, pH 1.2, 1 h
[26] = Half life in rat whole blood at 1 uM by UPLC-MS/MS analysis; format: ADME, tissue-based
[27] = Drug recovery in mesenteric vein plasma of closed loop rat intestinal model at 1 mg/kg administered as cassette dose by LC/MS analysis; format: ADME, organism-based; conditions: in vivo
[28] = physchem; conditions: 30% CH3CN/HCl buffer, pH 1
Description: Half life in pH 1 30%CH3CN/HCl buffer at 50 mM by RP-UPLC analysis

[29] = Ratio of test compound to atazanavir aqueous solubility in pH 6.5 phosphate buffer by RP-UPLC analysis; format: physicochemical
[30] = in vitro; conditions: human, Caco-2; remark: listed apart in the source
Description: Apparent permeability across apical to basolateral side in human Caco2 cells at 2 uM

[31] = Prodrug conversion in rat hepatocytes assessed as pseudo first order rate constant for atazanavir formation at 1 uM in presence of esterase inhibitor PMSF/CYP450 inhibitor ABT; format: ADME, cell-based, Hepatocyte

solubility [1]: 1100 to 4100 µg/mL (≈ 1290 to 4810 µM) | Ratio [2]: 1100 | half-life at 1 µM [3]: > 2 h | solubility [4]: 130 µg/mL (≈ 153 µM) | Papp B→A at 2 µM [5]: 13.1 ×10⁻⁶ cm/s | K [6]: 0.0164 min⁻¹ | Ratio [7]: 0.7 | half-life at 50000 µM [8]: > 500 h | solubility [9]: 1300 µg/mL (≈ 1530 µM) | Cmax [10]: 550 nM | Tmax [12]: 0.8 h | solubility [13]: > 500 µg/mL | Cmin [14]: Bld | AUClast [15]: 0.573 µM·h | fold change (FC) [16]: 4.1 | half-life at 1 µM [17]: > 2 h | efflux ratio [18]: > 8.7 | Tmax [19]: 0.5 h | AUClast [20]: 0.913 µM·h | pIC50 [21]: 5.60 | half-life at 1 µM [22]: 1.28 h | Tmax [23]: 0.5 h | Ratio [24]: 4100 | Stability [25]: Stable | half-life at 1 µM [26]: > 2 h | Drug recovery [27]: 2.8% | half-life at 50000 µM [28]: > 500 h | Ratio [29]: 27 | Papp A→B at 2 µM [30]: < 1.5 ×10⁻⁶ cm/s | K [31]: 0.0014 min⁻¹
SMILES: COC(=O)N[C@H](C(=O)N[C@@H](Cc1ccccc1)[C@H](CN(Cc1ccc(-c2ccccn2)cc1)NC(=O)[C@@H](NC(=O)OC)C(C)(C)C)OC(=O)[C@@H](N)Cc1ccccc1)C(C)(C)C
selectivity ratio [11]: 3
